Laboratory results published in patent US20070275968A1, “Substituted Biphenyl Derivative” (priority 2004, published 2007).

melting point [°C] | SMILES
123 to 135 | Cc1cccc(-c2[nH]c(C(C)C)nc2-c2cccc(-c3ccc(NC(=O)C(C)(C)O)cc3)c2)n1 [Example 34, 2-Hydroxy-N-{3′-[2-isopropyl-5-(6-methylpyridin-2-yl)-1H-imidazol-4-yl]-1,1′-biphenyl-4-yl}-2-methylpropanamide]
138 to 144 | Cc1cccc(-c2[nH]c(C(C)C)nc2-c2cccc(-c3ccc(C(N)=O)cn3)c2)n1 [Example 36, 6-{3-[2-Isopropyl-5-(6-methylpyridin-2-yl)-1H-imidazol-4-yl]phenyl}nicotinamide]
255 to 258 | Cc1cccc(-c2nc(C(C)C)[nH]c2-c2cccc(-c3ccc(S(N)(=O)=O)cc3)c2)n1 [Example 37, 3′-[2-Isopropyl-4-(6-methylpyridin-2-yl)-1H-imidazol-5-yl]-1,1′-biphenyl-4-sulfonamide]
96 to 100 | CNS(=O)(=O)c1ccc(-c2cccc(-c3nc(C(C)C)[nH]c3-c3cccc(C)n3)c2)cc1 [Example 38, 3′-[2-Isopropyl-5-(6-methylpyridin-2-yl)-1H-imidazol-4-yl]-N-methyl-1,1′-biphenyl-4-sulfonamide]
93 to 96 | Cc1cccc(-c2[nH]c(C(C)C)nc2-c2cccc(-c3ccc(S(=O)(=O)N(C)C)cc3)c2)n1 [Example 39, 3′-[2-Isopropyl-5-(6-methylpyridin-2-yl)-1H-imidazol-4-yl]-N,N-dimethyl-1,1′-biphenyl-4-sulfonamide]
88 to 92 | Cc1cccc(-c2[nH]c(C(C)C)nc2-c2cccc(-c3ccc(S(=O)(=O)N4CCOCC4)cc3)c2)n1 [Example 40, 4-({3′-[2-Isopropyl-5-(6-methylpyridin-2-yl)-1H-imidazol-4-yl]-1,1′-biphenyl-4-yl}sulfonyl)morpholine]
110 to 116 | Cc1cccc(-c2[nH]c(C(C)C)nc2-c2cccc(-c3ccc(S(=O)(=O)N4CCN(C)CC4)cc3)c2)n1 [Example 41, 1-({3′-[2-Isopropyl-5-(6-methylpyridin-2-yl)-1H-imidazol-4-yl]-1,1′-biphenyl-4-yl}sulfonyl)-4-methylpiperazine]
123 to 126 | Cc1cccc(-c2[nH]c(C(C)C)nc2-c2cccc(-c3cccc(S(N)(=O)=O)c3)c2)n1 [Example 42, 3′-[2-Isopropyl-5-(6-methylpyridin-2-yl)-1H-imidazol-4-yl]-1,1′-biphenyl-3-sulfonamide]
97 to 100 | Cc1cccc(-c2[nH]c(C(C)C)nc2-c2cccc(-c3ccccn3)c2)n1 [Example 43, 2-[2-Isopropyl-4-(3-pyridin-2-ylphenyl)-1H-imidazol-5-yl]-6-methylpyridine]
140 | Cc1cccc(-c2[nH]c(C(C)C)nc2-c2cccc(-c3ccc(C(=O)NC4CCOCC4)cc3)c2)n1 [Example 44, N-(Tetrahydropyran-4-yl)-4-{3-[2-isopropyl-5-(6-methylpyridin-2-yl)-1H-imidazol-4-yl]-phenyl}benzamide]
126 to 129 | Cc1cccc(-c2[nH]c(CC(C)C)nc2-c2cccc(-c3ccc(C(=O)NC4CCOCC4)cc3)c2)n1 [Example 45, N-(Tetrahydropyran-4-yl)-4-{3-[2-isobutyl-5-(6-methylpyridin-2-yl)-1H-imidazol-4-yl]phenyl}benzamide]
127 to 128 | Cc1cccc(-c2[nH]c(C3CC3)nc2-c2cccc(-c3ccc(C(=O)NC4CCOCC4)cc3)c2)n1 [Example 46, N-(Tetrahydropyran-4-yl)-4-{3-[2-cyclopropyl-5-(6-methylpyridin-2-yl)-1H-imidazol-4-yl]phenyl}benzamide]
145 | Cc1cccc(-c2[nH]c(C(C)C)nc2-c2cccc(-c3ccc(C(=O)NN4CCOCC4)cc3)c2)n1 [Example 51, N-(Morpholin-4-yl)-4-{3-[2-isopropyl-5-(6-methylpyridin-2-yl)-1H-imidazol-4-yl]-phenyl}benzamide]
136 to 140 | Cc1cccc(-c2nc(C(C)C)[nH]c2-c2cccc(-c3ccc(C(=O)N4CC[S+]([O-])CC4)cc3)c2)n1 [Example 56, 4-({3′-[2-Isopropyl-4-(6-methylpyridin-2-yl)-1H-imidazol-5-yl]-1,1′-biphenyl-4-yl}carbonyl)thiomorpholine 1-oxide]
141 to 145 | Cc1cccc(-c2nc(C(C)C)[nH]c2-c2cccc(-c3ccc(C(=O)N4CCS(=O)(=O)CC4)cc3)c2)n1 [Example 57, 4-({3′-[2-Isopropyl-4-(6-methylpyridin-2-yl)-1H-imidazol-5-yl]-1,1′-biphenyl-4-yl}carbonyl)thiomorpholine 1,1-dioxide]
113 to 115 | Cc1cccc(-c2[nH]c(C(C)C)nc2-c2ccc(F)c(-c3ccc(S(C)(=O)=O)cc3)c2)n1 [Example 61, 2-{4-[6-Fluoro-4′-(methylsulfonyl)-1,1′-biphenyl-3-yl]-2-isopropyl-1H-imidazol-5-yl}-6-methylpyridine]
107 to 109 | Cc1cccc(-c2nc(N)sc2-c2cccc(-c3ccc(S(C)(=O)=O)cc3)c2)n1 [Example 62, 4-(6-Methylpyridin-2-yl)-5-[4′-(methylsulfonyl)-1,1′-biphenyl-3-yl]-1,3-thiazol-2-amine]
108 to 110 | CCc1cccc(-c2[nH]c(C(C)C)nc2-c2cccc(-c3ccc(S(C)(=O)=O)cc3)c2)n1 [Example 64, 2-Ethyl-6-{2-isopropyl-4-[4′-(methylsulfonyl)-1,1′-biphenyl-3-yl]-1H-imidazol-5-yl}pyridine]
153 to 155 | Cc1cccc(-c2[nH]c(C(C)C)nc2-c2ccc(F)c(-c3ccc(C(=O)NN4CCOCC4)cc3)c2)n1 [Example 66, N-(Morpholin-4-yl)-4-{2-fluoro-5-[2-isopropyl-5-(6-methylpyridin-2-yl)-1H-imidazol-4-yl]phenyl}benzamide]
146 to 148 | Cc1cccc(-c2[nH]c(C(C)C)nc2-c2cccc(-c3ccc(NC(=O)NN4CCOCC4)cc3)c2)n1 [Example 67, N-{3′-[2-Isopropyl-5-(6-methylpyridin-2-yl)-1H-imidazol-4-yl]-1,1′-biphenyl-4-yl}-N′-morpholin-4-ylurea]
128 to 130 | Cc1cccc(-c2[nH]c(C(C)C)nc2-c2cccc(-c3ccc(C)[nH]3)c2)n1 [Example 69, 2-{2-Isopropyl-4-[3-(5-methyl-1H-pyrrol-2-yl)phenyl]-1H-imidazol-5-yl}-6-methylpyridine]
84 to 86 | Cc1cccc(-c2nc(C(C)C)[nH]c2-c2cccc(-c3cnn(C)c3)c2)n1 [Example 70, 2-{2-Isopropyl-5-[3-(1-methyl-1H-pyrazol-4-yl)phenyl]-1H-imidazol-4-yl}-6-methylpyridine]
179 to 184 | Cc1cccc(-c2[nH]c(C(C)C)nc2-c2cccc(-c3ccc(NS(C)(=O)=O)cc3F)c2)n1 [Example 73, N-{2-Fluoro-3′-[2-isopropyl-5-(6-methylpyridin-2-yl)-1H-imidazol-4-yl]-1,1′-biphenyl-4-yl}methanesulfonamide]
124 to 128 | Cc1cccc(-c2[nH]c(C(C)C)nc2-c2cccc(-c3ccc(NS(=O)(=O)C4CC4)cc3F)c2)n1 [Example 74, N-{2-Fluoro-3′-[2-isopropyl-5-(6-methylpyridin-2-yl)-1H-imidazol-4-yl]-1,1′-biphenyl-4-yl}cyclopropanesulfonamide]
